Measurements published in PubChem BioAssay (NCI).
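Briefly, cells in 96-well plates were exposed to five compound concentrations for 48 h, and endpoints were estimated by linear interpolation. TGI is the concentration that stops growth completely.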

Columns and labels:
Test in all cases: NCI anticancer screen, dose series, 48 h
SK-MEL-5 melanoma = test system: SK-MEL-5 melanoma
MDA-N = test system: MDA-N
OVCAR-4 ovarian = test system: OVCAR-4 ovarian
SK-OV-3 ovarian = test system: SK-OV-3 ovarian
HL-60(TB) leukemia = test system: HL-60(TB) leukemia
MDA-MB-435 = test system: MDA-MB-435
CCRF-CEM leukemia = test system: CCRF-CEM leukemia
SK-MEL-28 melanoma = test system: SK-MEL-28 melanoma
NCI-H460 lung = test system: NCI-H460 lung
COLO 205 colon = test system: COLO 205 colon
RXF 393 renal = test system: RXF 393 renal
NCI-H23 lung = test system: NCI-H23 lung
SW-620 colon = test system: SW-620 colon
MCF7 breast = test system: MCF7 breast
OVCAR-3 ovarian = test system: OVCAR-3 ovarian
M14 melanoma = test system: M14 melanoma
SF-295 CNS = test system: SF-295 CNS
SK-MEL-2 melanoma = test system: SK-MEL-2 melanoma
HCT-116 colon = test system: HCT-116 colon
NCI-H226 lung = test system: NCI-H226 lung
UACC-257 melanoma = test system: UACC-257 melanoma
SR leukemia = test system: SR leukemia
KM12 colon = test system: KM12 colon
LOX IMVI melanoma = test system: LOX IMVI melanoma
A498 renal = test system: A498 renal
SF-539 CNS = test system: SF-539 CNS
U251 CNS = test system: U251 CNS
UO-31 renal = test system: UO-31 renal
MALME-3M melanoma = test system: MALME-3M melanoma
HCC-2998 colon = test system: HCC-2998 colon
T-47D breast = test system: T-47D breast
MOLT-4 leukemia = test system: MOLT-4 leukemia
MDA-MB-231 breast = test system: MDA-MB-231 breast
NCI-H522 lung = test system: NCI-H522 lung
OVCAR-5 ovarian = test system: OVCAR-5 ovarian
IGROV1 ovarian = test system: IGROV1 ovarian
CAKI-1 renal = test system: CAKI-1 renal
RPMI-8226 leukemia = test system: RPMI-8226 leukemia
TK-10 renal = test system: TK-10 renal
HT29 colon = test system: HT29 colon
UACC-62 melanoma = test system: UACC-62 melanoma
HCT-15 colon = test system: HCT-15 colon
OVCAR-8 ovarian = test system: OVCAR-8 ovarian
SF-268 CNS = test system: SF-268 CNS
EKVX NSCLC = test system: EKVX NSCLC
BT-549 breast = test system: BT-549 breast
SN12C renal = test system: SN12C renal
HOP-92 NSCLC = test system: HOP-92 NSCLC
786-0 renal = test system: 786-0 renal
HS 578T breast = test system: HS 578T breast
HOP-62 NSCLC = test system: HOP-62 NSCLC
DU-145 prostate = test system: DU-145 prostate
ACHN renal = test system: ACHN renal
SNB-75 CNS = test system: SNB-75 CNS
SNB-19 CNS = test system: SNB-19 CNS
A549 NSCLC = test system: A549 NSCLC
K-562 leukemia = test system: K-562 leukemia
NCI/ADR-RES ovarian = test system: NCI/ADR-RES ovarian
PC-3 prostate = test system: PC-3 prostate

Q: Which results are given for `CCOC(=O)/C=C(/C(=O)OCC)n1cc(C)c(=O)n(Cc2cn(COCCOC(C)=O)nn2)c1=O`?
A: TGI (SK-MEL-5 melanoma): > 59.8 µM; TGI (MDA-N): > 85.4 µM; TGI (OVCAR-4 ovarian): 40 µM; TGI (SK-OV-3 ovarian): > 100 µM; TGI (HL-60(TB) leukemia): 84 µM; TGI (MDA-MB-435): 52.7 µM; TGI (CCRF-CEM leukemia): 5.33 µM; TGI (SK-MEL-28 melanoma): 57.1 µM; TGI (NCI-H460 lung): > 63.1 µM; TGI (COLO 205 colon): > 55.2 µM; TGI (RXF 393 renal): > 70 µM; TGI (NCI-H23 lung): 26.3 µM; TGI (SW-620 colon): > 57.6 µM; TGI (MCF7 breast): 43.5 µM; TGI (OVCAR-3 ovarian): 56.1 µM; TGI (M14 melanoma): > 100 µM; TGI (SF-295 CNS): > 100 µM; TGI (SK-MEL-2 melanoma): > 100 µM; TGI (HCT-116 colon): > 53.3 µM; TGI (NCI-H226 lung): > 54 µM; TGI (UACC-257 melanoma): 49.9 µM; TGI (SR leukemia): > 94.9 µM; TGI (KM12 colon): > 62.9 µM; TGI (LOX IMVI melanoma): 47.8 µM; TGI (A498 renal): > 100 µM; TGI (SF-539 CNS): 38.1 µM; TGI (U251 CNS): > 73.8 µM; TGI (UO-31 renal): 7.99 µM; TGI (MALME-3M melanoma): 23.7 µM; TGI (HCC-2998 colon): 37.6 µM; TGI (T-47D breast): > 64.3 µM; TGI (MOLT-4 leukemia): > 61.2 µM; TGI (MDA-MB-231 breast): 50.9 µM; TGI (NCI-H522 lung): 6.9 µM; TGI (OVCAR-5 ovarian): 65 µM; TGI (IGROV1 ovarian): 32.1 µM; TGI (CAKI-1 renal): 23.6 µM; TGI (RPMI-8226 leukemia): 57.7 µM; TGI (TK-10 renal): 29.2 µM; TGI (HT29 colon): 30.7 µM; TGI (UACC-62 melanoma): 40.9 µM; TGI (HCT-15 colon): > 61.9 µM; TGI (OVCAR-8 ovarian): 32.7 µM; TGI (SF-268 CNS): 48.2 µM; TGI (EKVX NSCLC): 31.3 µM; TGI (BT-549 breast): 37.9 µM; TGI (SN12C renal): 59.8 µM; TGI (HOP-92 NSCLC): 28.8 µM; TGI (786-0 renal): > 54.8 µM; TGI (HS 578T breast): > 78.3 µM; TGI (HOP-62 NSCLC): > 100 µM; TGI (DU-145 prostate): > 90.2 µM; TGI (ACHN renal): 21.6 µM; TGI (SNB-75 CNS): > 100 µM; TGI (SNB-19 CNS): > 92.5 µM; TGI (A549 NSCLC): > 100 µM; TGI (K-562 leukemia): 63.2 µM; TGI (NCI/ADR-RES ovarian): 67.9 µM; TGI (PC-3 prostate): > 100 µM
